Laboratory results taken from publication PMC4893628, “Chalcone-based Selective Inhibitors of a C4 Plant Key Enzyme as Novel Potential Herbicides” (Scientific Reports, 2016).
Read-outs that look alike come from different tables or passages of the source. Values belong to the compound of their own block, whether it stands above or below them.

Tests used:
F. pringlei PEPC = target: T1, F. pringlei PEPC (Flaveria pringlei, UniProt Q01647); test: PEPC coupled spectrophotometric assay, C3 PEPC; type: biochemical
T1 construct: the full-length ppcA gene of PEPC from F. trinervia (EMBL-Bank X61304) and F. pringlei (EMBL-Bank Z48966) were cloned in pETEV16b; made in house; host or cells: Escherichia coli BL21-Gold(DE3)
T1 sequence (Q01647 1-967): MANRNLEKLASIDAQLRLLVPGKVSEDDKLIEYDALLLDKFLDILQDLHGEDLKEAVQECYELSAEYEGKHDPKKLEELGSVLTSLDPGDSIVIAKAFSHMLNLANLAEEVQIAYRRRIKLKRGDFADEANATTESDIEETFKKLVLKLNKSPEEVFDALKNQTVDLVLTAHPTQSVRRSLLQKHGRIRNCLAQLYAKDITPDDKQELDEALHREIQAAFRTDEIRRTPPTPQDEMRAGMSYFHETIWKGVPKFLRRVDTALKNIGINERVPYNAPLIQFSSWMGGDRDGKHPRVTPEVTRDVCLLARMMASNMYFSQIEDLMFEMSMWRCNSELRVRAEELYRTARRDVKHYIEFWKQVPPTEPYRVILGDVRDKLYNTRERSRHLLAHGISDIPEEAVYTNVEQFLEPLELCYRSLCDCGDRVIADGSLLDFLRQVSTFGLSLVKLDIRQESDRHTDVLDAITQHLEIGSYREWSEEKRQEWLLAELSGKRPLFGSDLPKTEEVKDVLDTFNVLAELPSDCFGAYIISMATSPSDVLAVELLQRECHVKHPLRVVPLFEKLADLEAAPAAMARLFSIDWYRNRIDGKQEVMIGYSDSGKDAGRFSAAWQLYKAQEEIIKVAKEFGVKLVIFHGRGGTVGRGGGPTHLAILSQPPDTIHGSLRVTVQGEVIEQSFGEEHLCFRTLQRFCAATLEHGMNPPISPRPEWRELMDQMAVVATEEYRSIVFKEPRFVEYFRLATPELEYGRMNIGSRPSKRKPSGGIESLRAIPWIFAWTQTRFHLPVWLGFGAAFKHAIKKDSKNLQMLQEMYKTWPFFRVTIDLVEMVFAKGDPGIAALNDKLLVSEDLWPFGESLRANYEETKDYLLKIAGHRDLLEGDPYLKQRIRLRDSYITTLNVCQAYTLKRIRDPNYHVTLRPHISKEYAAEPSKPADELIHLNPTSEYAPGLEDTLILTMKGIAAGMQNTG
Description: The IC50 values of small molecule compounds on F. pringlei and F. trinervia PEPCs were determined using PEPC coupled spectrophotometric assay. The amount of NADH oxidized by NADH-malate dehydrogenase was measured by the decrease in absorbance at 340 nm in a Beckman DU-800 spectrophotometer, thus the value is in proportion to the corresponding substrate conversion of the enzyme. The reaction mixture included the PEPC enzymes (0.05 U), NADH (150 μM), malate dehydrogenase (2 U) and different concentration of compounds in the buffer containing 50 mM HEPES/KOH pH 7.5, 10 mM MgCl2, 10 mM KHCO3 in a final volume of 600 μl at 25 °C. The reactions were started by adding two folds of the Km value of PEP for each enzyme. The data were analyzed using GraFit (Erithacus Software, UK).

[1] = target: T2, wild-type C4 PEPC from F. trinervia (Flaveria trinervia, UniProt P30694); test: Isothermal titration calorimetry, wild-type C4 PEPC; type: binding
T2 construct: the full-length ppcA gene of PEPC from F. trinervia (EMBL-Bank X61304); made in house; host or cells: Escherichia coli BL21(DE3)
T2 sequence (P30694 1-966): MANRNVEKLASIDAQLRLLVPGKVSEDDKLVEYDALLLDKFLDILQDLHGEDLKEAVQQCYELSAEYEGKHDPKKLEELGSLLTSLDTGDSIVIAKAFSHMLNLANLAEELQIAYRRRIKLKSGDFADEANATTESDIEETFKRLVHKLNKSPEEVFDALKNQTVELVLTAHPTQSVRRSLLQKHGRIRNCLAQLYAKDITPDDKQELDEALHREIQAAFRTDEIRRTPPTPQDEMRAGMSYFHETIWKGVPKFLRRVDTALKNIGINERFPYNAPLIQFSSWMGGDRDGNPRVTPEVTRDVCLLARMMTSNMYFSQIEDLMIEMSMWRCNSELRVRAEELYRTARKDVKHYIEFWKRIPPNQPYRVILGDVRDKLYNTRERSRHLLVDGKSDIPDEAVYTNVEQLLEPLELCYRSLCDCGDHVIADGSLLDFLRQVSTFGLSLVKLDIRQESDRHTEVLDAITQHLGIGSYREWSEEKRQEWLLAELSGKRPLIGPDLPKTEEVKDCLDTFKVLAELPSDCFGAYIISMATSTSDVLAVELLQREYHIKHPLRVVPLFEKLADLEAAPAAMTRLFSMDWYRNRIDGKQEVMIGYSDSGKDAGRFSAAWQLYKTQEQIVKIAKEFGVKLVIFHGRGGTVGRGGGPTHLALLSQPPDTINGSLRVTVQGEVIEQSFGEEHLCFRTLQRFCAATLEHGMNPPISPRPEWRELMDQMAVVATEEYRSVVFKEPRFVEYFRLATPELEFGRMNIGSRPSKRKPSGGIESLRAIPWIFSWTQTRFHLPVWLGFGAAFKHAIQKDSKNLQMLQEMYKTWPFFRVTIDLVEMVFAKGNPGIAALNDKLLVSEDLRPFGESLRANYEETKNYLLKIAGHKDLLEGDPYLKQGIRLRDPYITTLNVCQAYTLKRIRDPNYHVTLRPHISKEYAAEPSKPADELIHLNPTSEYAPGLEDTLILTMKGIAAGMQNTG
Description: (§1) The binding affinities between small molecule compounds and PEPC enzymes were measured using a MicroCal iTC200 calorimeter (GE Healthcare). 18 injections (2 μl each) of 200 μM compound were injected into a sample cell containing 20 uM PEPC at 25 °C. The buffer of the compounds and the enzymes contained 50 mM Tris/HCl pH 7.5, 150 mM NaCl, 10 mM MgCl2. The data were analyzed with one-site-binding fitting using Origin software (MicroCal Inc.) to calculate the dissociation constant (Kd) of the small molecule inhibitors.

C4 PEPC mutant G884R = C4 PEPC mutant G884R (Flaveria trinervia, UniProt P30694, G884R); test: Isothermal titration calorimetry, mutant G884R; type: binding
Description: as §1

B. napus = test: Chlorophyll fluorescence measurements, B. napus; type: in vivo, Brassica napus; conditions: 2 mM
[2] = read-out: IC50 F. pringlei PEPC

Chain of C4 PEPC mutant G884R (P30694 whole entry G884R): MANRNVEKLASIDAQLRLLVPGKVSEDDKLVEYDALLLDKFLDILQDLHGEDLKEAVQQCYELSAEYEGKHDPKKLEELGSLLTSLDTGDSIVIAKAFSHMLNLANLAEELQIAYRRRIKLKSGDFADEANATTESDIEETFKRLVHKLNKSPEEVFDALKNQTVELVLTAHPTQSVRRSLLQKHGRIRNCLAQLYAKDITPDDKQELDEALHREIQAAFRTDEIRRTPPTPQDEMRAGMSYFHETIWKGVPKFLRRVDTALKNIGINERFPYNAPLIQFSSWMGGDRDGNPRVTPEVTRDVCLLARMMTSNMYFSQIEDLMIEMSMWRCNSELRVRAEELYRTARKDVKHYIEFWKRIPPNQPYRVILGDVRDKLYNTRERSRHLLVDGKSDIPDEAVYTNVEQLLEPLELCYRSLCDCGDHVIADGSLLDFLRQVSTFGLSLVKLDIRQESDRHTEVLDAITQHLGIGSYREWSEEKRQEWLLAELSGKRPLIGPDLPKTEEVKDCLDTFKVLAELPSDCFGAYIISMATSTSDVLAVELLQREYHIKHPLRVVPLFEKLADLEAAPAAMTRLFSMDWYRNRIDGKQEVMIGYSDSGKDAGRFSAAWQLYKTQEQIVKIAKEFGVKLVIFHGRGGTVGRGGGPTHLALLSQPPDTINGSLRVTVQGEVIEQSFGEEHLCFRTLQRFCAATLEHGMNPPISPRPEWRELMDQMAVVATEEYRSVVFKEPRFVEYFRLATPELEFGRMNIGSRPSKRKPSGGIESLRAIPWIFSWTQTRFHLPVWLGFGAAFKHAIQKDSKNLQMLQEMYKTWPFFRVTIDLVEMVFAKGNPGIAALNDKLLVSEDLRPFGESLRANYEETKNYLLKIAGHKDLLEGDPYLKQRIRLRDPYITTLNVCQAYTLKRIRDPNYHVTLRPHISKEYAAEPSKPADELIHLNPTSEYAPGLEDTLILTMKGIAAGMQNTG

SMILES: O=C(/C=C/c1ccccc1)c1ccccc1 [Compound 1, trans-Chalcone]
- IC50 (F. pringlei PEPC; IC50 F. pringlei PEPC): 119 ± 4.6 µM

SMILES: O=C(/C=C/c1ccccc1)c1ccccc1O [Compound 2, 2′-Hydroxychalcone]
- IC50 (F. pringlei PEPC; IC50 F. pringlei PEPC): 76.3 ± 1.9 µM

SMILES: O=C(/C=C/c1ccc(O)cc1)c1ccccc1O [Compound 3, 2′,4-Dihydroxychalcone]
- IC50 (F. pringlei PEPC; [2]): 64.2 ± 2.8 µM

SMILES: O=C(/C=C/c1ccccc1)c1ccc(O)cc1O [Compound 4, 2′,4′-Dihydroxychalcone]
- IC50 (F. pringlei PEPC; [2]): 53 ± 1.1 µM

- IC50 (F. pringlei PEPC; [2]): 105 ± 4.6 µM
SMILES: O=C(/C=C/c1ccccc1)c1cc(O)ccc1O [Compound 5, 2′,5′-Dihydroxychalcone]

SMILES: O=C(/C=C/c1ccc(O)cc1)c1ccc(O)cc1O [Compound 6, 2′,4′,4-Trihydroxychalcone]
- IC50 (F. pringlei PEPC; IC50 F. pringlei PEPC): 57.8 ± 1.1 µM

SMILES: O=C(/C=C/c1ccccc1O)c1ccc(O)cc1O [Compound 7, 2′,4′,2-Trihydroxychalcone]
- IC50 (F. pringlei PEPC; [2]): 64.4 ± 1.1 µM

SMILES: O=C(/C=C/c1ccc(O)c(O)c1)c1ccc(O)cc1O [Compound 8, 2′,4′,3,4-Tetrahydroxy-chalcone]
- Kd [1]: 0.38 µM
- Kd (C4 PEPC mutant G884R): 8.6 µM

SMILES: O=C(/C=C/c1cc(O)c(O)c(O)c1)c1ccc(O)cc1O [Compound 9, 2′,4′,3,4,5-Pentahydroxychalcone]
- Kd ([1]; ITC, wild-type (wtFt), no aspartate, read-out: Kd): 0.46 µM
- Kd (C4 PEPC mutant G884R): 4.8 µM

SMILES: O=C(/C=C/c1ccc(O)c(O)c1)c1c(O)cc(O)cc1O [Compound 11, 2′,4′,6′,3,4-Pentahydroxy-chalcone]
- IC50 (F. pringlei PEPC; [2]): 8.2 ± 0.3 µM

SMILES: O=C(/C=C/c1ccc(O)c(O)c1)c1ccc(O)c(O)c1O [Compound 12, 2′,3′,4′,3,4-Pentahydroxy-chalcone]
- Kd [1]: 0.26 µM
- weaker Kd at 0.5 mM aspartate in comparison to no aspartate ([1]; ITC): ~ 5 fold
- IC50 (F. pringlei PEPC; IC50 F. pringlei PEPC): 26.8 ± 3.5 µM
- Kd (C4 PEPC mutant G884R): 5.4 µM
- photosynthetic parameters (B. napus): no effect
